Legend:
hypothalamic slices = hypothalamic slices in vitro; cited from earlier work
Y1R = biological target: T1, Y1R (Homo sapiens, UniProt P25929); experiment: Ca flux assay (FLIPR), Y1R; type: cell-based
T1 sequence (P25929 1-384): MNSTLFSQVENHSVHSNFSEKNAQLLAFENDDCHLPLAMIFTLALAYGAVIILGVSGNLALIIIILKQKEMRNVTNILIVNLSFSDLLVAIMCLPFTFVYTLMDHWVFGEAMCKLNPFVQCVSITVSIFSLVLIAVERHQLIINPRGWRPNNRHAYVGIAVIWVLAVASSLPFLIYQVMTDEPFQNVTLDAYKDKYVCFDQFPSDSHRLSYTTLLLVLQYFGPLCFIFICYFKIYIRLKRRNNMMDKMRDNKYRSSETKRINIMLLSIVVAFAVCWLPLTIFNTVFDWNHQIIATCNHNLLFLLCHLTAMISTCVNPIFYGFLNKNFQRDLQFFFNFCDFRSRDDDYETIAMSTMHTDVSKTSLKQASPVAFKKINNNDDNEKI

Y4R = Y4R (Homo sapiens, UniProt P50391); experiment: Ca flux assay (FLIPR), Y4R; type: cell-based
Chain of Y4R (P50391 whole entry): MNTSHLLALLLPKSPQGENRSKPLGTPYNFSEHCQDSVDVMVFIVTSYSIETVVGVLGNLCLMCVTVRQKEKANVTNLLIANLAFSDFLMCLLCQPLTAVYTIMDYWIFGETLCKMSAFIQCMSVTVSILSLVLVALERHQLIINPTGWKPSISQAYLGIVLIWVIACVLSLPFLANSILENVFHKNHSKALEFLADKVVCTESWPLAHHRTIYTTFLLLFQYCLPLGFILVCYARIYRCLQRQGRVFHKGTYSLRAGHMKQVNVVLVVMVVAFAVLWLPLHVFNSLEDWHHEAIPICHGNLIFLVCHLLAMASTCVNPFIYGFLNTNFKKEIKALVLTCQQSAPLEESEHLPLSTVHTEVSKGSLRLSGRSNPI

Y5R = biological target: T2, Y5R (Homo sapiens, UniProt Q15761); experiment: Ca flux assay (FLIPR), Y5R; type: cell-based; details: for Emax: read-out: Y5R FLIPR, percentage in brackets beside the EC50
T2 sequence (Q15761 1-445): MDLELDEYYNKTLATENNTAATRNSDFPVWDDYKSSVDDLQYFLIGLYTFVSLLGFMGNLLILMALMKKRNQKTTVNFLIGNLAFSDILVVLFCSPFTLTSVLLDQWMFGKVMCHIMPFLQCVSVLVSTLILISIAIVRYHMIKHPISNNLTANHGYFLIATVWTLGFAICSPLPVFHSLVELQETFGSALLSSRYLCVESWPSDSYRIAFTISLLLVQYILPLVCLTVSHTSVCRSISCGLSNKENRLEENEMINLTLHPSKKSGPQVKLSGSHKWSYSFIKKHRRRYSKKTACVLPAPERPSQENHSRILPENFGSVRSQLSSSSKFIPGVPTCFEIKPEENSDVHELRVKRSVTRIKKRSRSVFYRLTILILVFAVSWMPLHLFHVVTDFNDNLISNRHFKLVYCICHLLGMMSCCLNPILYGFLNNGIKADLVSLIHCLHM

human NPY2-receptors = biological target: T3, human NPY2-receptors (Homo sapiens, UniProt P49146); experiment: cAMP agonist assay, Y2R; type: cell-based
T3 construct: expressed in transfected cells; host or cells: HEK293 (G418 selection in the medium)
T3 sequence (P49146 1-381): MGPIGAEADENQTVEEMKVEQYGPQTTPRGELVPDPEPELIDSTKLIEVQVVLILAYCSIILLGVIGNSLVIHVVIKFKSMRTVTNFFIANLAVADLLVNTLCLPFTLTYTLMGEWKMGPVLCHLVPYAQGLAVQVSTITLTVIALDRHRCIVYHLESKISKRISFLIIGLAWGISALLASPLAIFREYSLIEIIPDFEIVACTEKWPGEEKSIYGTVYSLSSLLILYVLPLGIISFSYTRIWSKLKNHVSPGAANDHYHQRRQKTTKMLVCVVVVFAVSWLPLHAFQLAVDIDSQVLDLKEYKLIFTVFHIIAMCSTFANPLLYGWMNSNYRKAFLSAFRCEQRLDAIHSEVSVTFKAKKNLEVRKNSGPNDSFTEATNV
Experimental: HEK293 cells expressing human NPY2-receptors were plated in a 384-well plate at a density of 9000 cells/well using a Multi-drop dispenser and the plates were grown overnight at 37° C.
The media and reagents were warmed to room temperature. Before the dilutions were prepared, the stock solution of NPY2-receptor ligands and controls in dimethyl sulphoxide (DMSO, Sigma Cat. #D2650) was allowed to warm up to 32° C. for 5-10 min.
The plating media was removed by gentle inversion of the 384-well plate on a paper towel and was replaced with incubation medium (50 μ/L well) containing various concentrations of NPY2-receptor ligands (four replicates/concentration). The plates were incubated at room temperature for 30 min. Following the 30 min treatment period, the incubation media was discarded and replaced with 50 μL/well of Assay Lysis Buffer (provided in the Tropix kit). The cells were lysed by incubating plates for 45 min @ 37° C. The lysate (20 μl) was transferred into the pre-coated antibody plates (384-well) supplied in the Tropix kit. AP conjugate (10 μL) and of anti-cAMP antibody (20 μL) was added to each well and the plates incubated on a shaker at room temperature for 1 h. The plates were washed 5 times with Wash Buffer (70 μL/well/wash) and the plates tapped dry. […] The signal in each well was measured (1 sec/well) using a Luminometer (VICTOR-V).

Structure (SMILES) | NPY release (hypothalamic slices) | EC50 (Y1R) [µM] | EC50 (Y4R) [µM] | EC50 (Y5R) [µM] | Emax (Y5R) [%] | EC50 (human NPY2-receptors) [µM]
N=C(N)NCCC[C@H](NC(=O)CC1(CC(=O)N2CCN(C3c4ccccc4NC(=O)c4ccccc43)CC2)CCCC1)C(=O)NCCn1c(=O)n(-c2ccccc2)n(-c2ccccc2)c1=O (stereo partly shown) [BIIE0246] | increases NPY release | – | – | – | – | –
CC[C@H](C)[C@H](NC(C)=O)C(=O)N[C@@H](CCCCN)C(=O)NCc1ccc(-c2cccc(CC(=O)N[C@@H](CCCNC(=N)N)C(=O)N[C@@H](Cc3c[nH]cn3)C(=O)N[C@@H](Cc3ccc(O)cc3)C(=O)N[C@@H](CC(C)C)C(=O)N[C@@H](CC(N)=O)C(=O)N[C@@H](Cc3c[nH]c4ccccc34)C(=O)N[C@H](C(=O)N[C@H](C(=O)N[C@@H](CCCNC(=N)N)C(=O)N[C@@H](CCC(N)=O)C(=O)N(C)[C@@H](CCCNC(=N)N)C(=O)N[C@@H](Cc3ccc(O)cc3)C(N)=O)[C@@H](C)O)C(C)C)c2)cc1 [Example 5] | – | > 30 | > 30 | > 30 | – | –
CC[C@H](C)[C@H](NC(C)=O)C(=O)N[C@@H](CCCCN)C(=O)N1CCN(c2ccc3c(ccn3CC(=O)N[C@@H](CCCNC(=N)N)C(=O)N[C@@H](Cc3c[nH]cn3)C(=O)N[C@@H](Cc3ccc(O)cc3)C(=O)N[C@@H](CC(C)C)C(=O)N[C@@H](CC(N)=O)C(=O)N[C@@H](Cc3c[nH]c4ccccc34)C(=O)N[C@H](C(=O)N[C@H](C(=O)N[C@@H](CCCNC(=N)N)C(=O)N[C@@H](CCC(N)=O)C(=O)N(C)[C@@H](CCCNC(=N)N)C(=O)N[C@@H](Cc3ccc(O)cc3)C(N)=O)[C@@H](C)O)C(C)C)c2)CC1 [Example 6] | – | > 30 | > 30 | 10.7 | – | –
CC[C@H](C)[C@H](NC(C)=O)C(=O)N[C@@H](CCCCN)C(=O)N1CCCN(c2ccc3ncn(CC(=O)N[C@@H](CCCNC(=N)N)C(=O)N[C@@H](Cc4c[nH]cn4)C(=O)N[C@@H](Cc4ccc(O)cc4)C(=O)N[C@@H](CC(C)C)C(=O)N[C@@H](CC(N)=O)C(=O)N[C@@H](Cc4c[nH]c5ccccc45)C(=O)N[C@H](C(=O)N[C@H](C(=O)N[C@@H](CCCNC(=N)N)C(=O)N[C@@H](CCC(N)=O)C(=O)N(C)[C@@H](CCCNC(=N)N)C(=O)N[C@@H](Cc4ccc(O)cc4)C(N)=O)[C@@H](C)O)C(C)C)c(=O)c3c2)CC1 [Example 8] | – | > 9 | > 9 | 6.03 | – | –
CC[C@H](C)[C@H](NC(C)=O)C(=O)N[C@@H](CCCCN)C(=O)N1CCN(c2nc3ncn(CC(=O)N[C@@H](CCCNC(=N)N)C(=O)N[C@@H](Cc4c[nH]cn4)C(=O)N[C@@H](Cc4ccc(O)cc4)C(=O)N[C@@H](CC(C)C)C(=O)N[C@@H](CC(N)=O)C(=O)N[C@@H](Cc4c[nH]c5ccccc45)C(=O)N[C@H](C(=O)N[C@H](C(=O)N[C@@H](CCCNC(=N)N)C(=O)N[C@@H](CCC(N)=O)C(=O)N(C)[C@@H](CCCNC(=N)N)C(=O)N[C@@H](Cc4ccc(O)cc4)C(N)=O)[C@@H](C)O)C(C)C)c3c(=O)[nH]2)CC1 [Example 9] | – | > 9 | > 9 | > 9 | – | –
CC[C@H](C)[C@H](NC(C)=O)C(=O)N[C@@H](CCCCN)C(=O)N1CCN(c2ncc3c(ncn3CC(=O)N[C@@H](CCCNC(=N)N)C(=O)N[C@@H](Cc3c[nH]cn3)C(=O)N[C@@H](Cc3ccc(O)cc3)C(=O)N[C@@H](CC(C)C)C(=O)N[C@@H](CC(N)=O)C(=O)N[C@@H](Cc3c[nH]c4ccccc34)C(=O)N[C@H](C(=O)N[C@H](C(=O)N[C@@H](CCCNC(=N)N)C(=O)N[C@@H](CCC(N)=O)C(=O)N(C)[C@@H](CCCNC(=N)N)C(=O)N[C@@H](Cc3ccc(O)cc3)C(N)=O)[C@@H](C)O)C(C)C)n2)CC1 [Example 10] | – | > 5 | > 5 | 1.1 | 48 | –
CC[C@H](C)[C@H](NC(C)=O)C(=O)N[C@@H](CCCCN)C(=O)N1CCN(c2nc(N)c3c(ncn3CC(=O)N[C@@H](CCCNC(=N)N)C(=O)N[C@@H](Cc3c[nH]cn3)C(=O)N[C@@H](Cc3ccc(O)cc3)C(=O)N[C@@H](CC(C)C)C(=O)N[C@@H](CC(N)=O)C(=O)N[C@@H](Cc3c[nH]c4ccccc34)C(=O)N[C@H](C(=O)N[C@H](C(=O)N[C@@H](CCCNC(=N)N)C(=O)N[C@@H](CCC(N)=O)C(=O)N(C)[C@@H](CCCNC(=N)N)C(=O)N[C@@H](Cc3ccc(O)cc3)C(N)=O)[C@@H](C)O)C(C)C)n2)CC1 [Example 11] | – | > 5 | > 5 | 3.3 | 39 | 0.00018
CC[C@H](C)[C@H](NC(C)=O)C(=O)N[C@@H](CCCCN)C(=O)N1CC2CC1CC2c1ccc2ncn(CC(=O)N[C@@H](CCCNC(=N)N)C(=O)N[C@@H](Cc3c[nH]cn3)C(=O)N[C@@H](Cc3ccc(O)cc3)C(=O)N[C@@H](CC(C)C)C(=O)N[C@@H](CC(N)=O)C(=O)N[C@@H](Cc3c[nH]c4ccccc34)C(=O)N[C@H](C(=O)N[C@H](C(=O)N[C@@H](CCCNC(=N)N)C(=O)N[C@@H](CCC(N)=O)C(=O)N(C)[C@@H](CCCNC(=N)N)C(=O)N[C@@H](Cc3ccc(O)cc3)C(N)=O)[C@@H](C)O)C(C)C)c(=O)c2c1 (stereo partly shown) [Example 12] | – | > 5 | > 5 | 2.87 | 43 | –
CC[C@H](C)[C@H](NC(C)=O)C(=O)N[C@@H](CCCCN)C(=O)N1CCN(c2ccc3ccn(CC(=O)N[C@@H](CCCNC(=N)N)C(=O)N[C@@H](Cc4c[nH]cn4)C(=O)N[C@@H](Cc4ccc(O)cc4)C(=O)N[C@@H](CC(C)C)C(=O)N[C@@H](CC(N)=O)C(=O)N[C@@H](Cc4c[nH]c5ccccc45)C(=O)N[C@H](C(=O)N[C@H](C(=O)N[C@@H](CCCNC(=N)N)C(=O)N[C@@H](CCC(N)=O)C(=O)N(C)[C@@H](CCCNC(=N)N)C(=O)N[C@@H](Cc4ccc(O)cc4)C(N)=O)[C@@H](C)O)C(C)C)c(=O)c3c2)CC1 [Example 13] | – | > 5 | > 5 | 2.34 | 49 | 0.00018
